According to BindingDB's records for doi:10.7270/Q2CN728N (Nmmlsc, 2008):
Structures can show the parent of a compound that is named as a salt.

biological target: T1, Bcl-2-related protein A1 (Homo sapiens, UniProt Q16548); assay: inhibitors of Bim binding to Bfl-1, dose response, biochemical, multiplexed, bead-based flow cytometry (AID 1320); conditions: inactive by the depositor's call; pH 7.4; 4 °C
T1 sequence (Q16548 whole entry): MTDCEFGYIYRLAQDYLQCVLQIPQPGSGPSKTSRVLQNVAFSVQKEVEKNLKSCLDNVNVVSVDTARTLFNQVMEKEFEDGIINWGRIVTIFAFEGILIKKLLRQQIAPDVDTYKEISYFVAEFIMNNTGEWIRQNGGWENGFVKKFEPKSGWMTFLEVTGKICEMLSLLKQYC

Row | SMILES | EC50 [µM]
1 | Cc1cc(C)nc(SCc2cc(=O)c(OC(=O)c3ccc(Cl)c([N+](=O)[O-])c3)co2)n1 [4-chloro-3-nitrobenzoic acid [6-[[(4,6-dimethyl-2-pyrimidinyl)thio]methyl]-4-oxo-3-pyranyl] ester] | 19.7
2 | COc1cc(/N=c2/ssnc2Cl)cc(OC)c1 [4-chloro-N-(3,5-dimethoxyphenyl)-5-dithiazolimine] | 15
3 | CCOC(=O)c1sc(N)c(C(=O)Nc2ccccc2OC)c1C [5-amino-4-[(2-methoxyanilino)-oxomethyl]-3-methyl-2-thiophenecarboxylic acid ethyl ester] | 5.66
4 | O=C(N[N-][CH+]c1ccc(-c2ccccc2[N+](=O)[O-])o1)c1cncc(Br)c1 [5-bromo-N-[[5-(2-nitrophenyl)furan-2-yl]methylideneamino]pyridine-3-carboxamide] | 33.6
5 | O=C1C(=Cc2ccco2)NC(=S)N1c1ccccc1 [(5E)-5-(furan-2-ylmethylidene)-3-phenyl-2-sulfanylideneimidazolidin-4-one] | 14.8
6 | CC(C)CN1C(=O)/C(=C/c2ccco2)NC1=S [(5Z)-5-(2-furanylmethylidene)-3-(2-methylpropyl)-2-sulfanylidene-4-imidazolidinone] | 11
7 | Cc1ccc(-c2ccc(/C=C3\SC(N4CCOCC4)=NC3=O)o2)cc1 [(5Z)-5-[[5-(4-methylphenyl)-2-furanyl]methylidene]-2-(4-morpholinyl)-4-thiazolone] | 20
8 | COc1cc(C2Nc3cccc4cccc(c34)N2)ccc1OC(C)=O [Acetic acid 4-(2,3-dihydro-1H-perimidin-2-yl)-2-methoxy-phenyl ester] | 11.1
9 | COC(=O)CSc1ncnc2c1sc1nc(-c3ccco3)c3c(c12)CC(C)(C)OC3 [MLS000039339] | 12.4
10 | C/C(=C\c1ccco1)C1Nc2cccc3cccc(c23)N1 [MLS000055728] | 15.8
11 | CCOc1cc(C2Nc3cccc4cccc(c34)N2)ccc1O [MLS000068595] | 37.5
12 | COc1ccc(-n2c(NC(=O)c3ccco3)c(C#N)c3nc4ccccc4nc32)cc1 [MLS000079925] | 16.1
13 | Cc1cc2n(c1)CCn1c(C)ccc1-2 [MLS000104384] | 12.6
14 | Cc1ccc(C)n1-c1ccc(N2CCOCC2)cc1 [MLS000111760] | 11.4
15 | Clc1nc(NCc2cccnc2)nc(N2CCOCC2)n1 [MLS000121154] | 30.8
16 | CCOC(=O)C(=Cc1cccc(O)c1)c1nc2sc(C)c(C)c2c(=O)[nH]1 [MLS000393989] | 9.56
17 | S=c1[nH]cc(-c2ccccc2)n1-c1ccccc1Cl [MLS000417182] | 2.23

Row | SMILES | EC50 [µM]
18 | CCCCNc1[nH]c(=S)nc2cc(OC)c(OC)cc12 [MLS000520261] | 17.3
19 | COc1ccc(C2=Nc3cccc4cccc(c34)N2)cc1 [MLS000551954] | 6.49
20 | CCOc1cccc(CNc2ccc(O)cc2)c1OCc1ccccc1Cl [MLS000580486] | 1.61
21 | CCCC(=O)OCCNc1cc(Sc2nccn2C)c2nonc2c1[N+](=O)[O-] [MLS000584441] | 18.1
22 | Cc1ccc(/C=C2/NC(=O)N(Cc3ccccc3)C2=O)o1 [MLS000698643] | 2.73
23 | COc1ccc(/C=C/C(=O)c2cc(Br)ccc(=O)c2O)cc1 [MLS000702099] | 14
24 | COc1cccc2c1C(=O)C=C(C)C2=O [MLS000702735] | 28.3
25 | COC(=O)CCC(=O)Nc1sc(Cc2ccccc2)c(C)c1C(N)=O [MLS000708819] | 0.97
26 | CCOC(=O)c1cc2c(=O)n3ccccc3nc2n(Cc2ccco2)/c1=N/C(=O)c1ccccc1OC [MLS000729830] | 34.5
27 | Cc1ccc(/C=C/C(=O)c2ccccc(=O)c2O)cc1C [MLS000756172] | 14.9
28 | CC(=O)Nc1ccc(-n2cc(-c3ccccc3)[nH]c2=S)cc1 [MLS001001946] | 0.47
29 | CCc1cccc(CC)c1-n1c(-c2cccnc2)n[nH]c1=S [MLS001006773] | 1.09
30 | COc1ccccc1-n1c(-c2ccccc2)c[nH]c1=S [MLS001007615] | 0.61
31 | O=C(Cn1c2ccccc2c(=O)c2ccccc21)N/N=C/c1ccc(N2CCCC2)c([N+](=O)[O-])c1 [N'-[(1E)-(3-nitro-4-pyrrolidin-1-ylphenyl)methylene]-2-(9-oxoacridin-10(9H)-yl)acetohydrazide] | 41.1
32 | O=C(Nc1ccc(N2CCOCC2)cc1)Nc1ccc2nc(-c3ccco3)c(-c3ccco3)nc2c1 [N-(2,3-di-2-furyl-6-quinoxalinyl)-N'-[4-(4-morpholinyl)phenyl]urea] | 19.5
33 | O=C(Nc1nnc(COc2ccc(Cl)cc2)s1)c1ccco1 [N-[5-[(4-chloranylphenoxy)methyl]-1,3,4-thiadiazol-2-yl]furan-2-carboxamide] | 8.07

same assay, conditions: pH 7.4; 4 °C

Row | SMILES | EC50 [µM]
34 | CN(C)c1ccc(C=C2C(=O)NC(=O)NC2=O)cc1[N+](=O)[O-] [5-[[4-(dimethylamino)-3-nitrophenyl]methylidene]-1,3-diazinane-2,4,6-trione] | 4.67
35 | Cc1ccc(-c2nc3c(c(=O)[nH]c(=O)n3Cc3ccccc3)n2C)o1 [7-methyl-8-(5-methyl-2-furanyl)-3-(phenylmethyl)purine-2,6-dione] | 1.94
36 | COc1cc(/C=C2\CC/C(=C\c3cc(OC)c(O)c(OC)c3)C2=O)cc(OC)c1O [(2E,5E)-2,5-bis[(4-hydroxy-3,5-dimethoxyphenyl)methylidene]cyclopentan-1-one] | 3.9
37 | O=C1/C(=C\c2ccc(-c3ccccc3Cl)o2)SC(=S)N1CC1CCCO1 (stereo unspecified) [(5E)-5-[[5-(2-chlorophenyl)furan-2-yl]methylidene]-3-(oxolan-2-ylmethyl)-2-sulfanylidene-1,3-thiazolidin-4-one] | 2.6
38 | Fc1ccc(C=C2CCCC3C2=NC(=S)NC3c2ccc(F)cc2)cc1 (stereo unspecified) [(8E)-4-(4-fluorophenyl)-8-[(4-fluorophenyl)methylidene]-1,3,4,5,6,7-hexahydroquinazoline-2-thione] | 6.65
39 | CN1CCc2cccc3c2[C@H]1Cc1ccc(O)c(O)c1-3 [APOMORPHINE HYDROCHLORIDE] | 46.4
40 | Cc1ccc(-c2cc(-c3ccc(F)cc3)nc(N)c2C#N)o1 [MLS000082831] | 2.44
41 | CCOC(=O)C1CCN(C(=O)Nc2ccc3nc(-c4ccco4)c(-c4ccco4)nc3c2)CC1 [MLS000113285] | 1.18
42 | Clc1ccc2c(N=NCc3ccccc3Br)ccnc2c1 [MLS000336087] | 12.2
43 | O=[N+]([O-])c1ccc(N=NCc2ccc(O)c(O)c2O)c(S(=O)(=O)N2CCOCC2)c1 [MLS000336720] | 4.48
44 | O=[N+]([O-])c1ccc(N2CCN(c3ccc(O)cc3)CC2)c(Cl)c1 [MLS000374649] | 1.77
45 | Cc1ccc(NC2=C(NC(=O)c3ccccc3)C(=O)c3ccccc3C2=O)cc1Cl [MLS000392290] | 2.31
46 | O=[N+]([O-])c1c(NCCO)cc(Sc2nc3ccccc3s2)c2nonc12 [MLS000520993] | 0.12
47 | O=[N+]([O-])c1c(NCCCO)cc(Sc2nc3ccccc3s2)c2nonc12 [MLS000520994] | 0.61
48 | CN(CCO)c1cc(Sc2nc3ccccc3s2)c2nonc2c1[N+](=O)[O-] [MLS000520995] | 1.48
49 | CC(=O)OCCCNc1cc(Sc2nc3ccccc3s2)c2nonc2c1[N+](=O)[O-] [MLS000521052] | 0.08
50 | O=C1C=CC(C=NNC(=O)C(=Cc2ccc([N+](=O)[O-])cc2)NC(=O)c2ccccc2)C(O)=C1O (stereo unspecified) [MLS000530401] | 5.22

Row | SMILES | EC50 [µM]
51 | COc1ccc2c3c(cccc13)N(C)N=C2C [MLS000554700] | 0.61
52 | Cc1ccc(/C=C/C(=O)Nc2ccc([N+](=O)[O-])c(NC(=O)/C=C/c3ccc(C)o3)c2)o1 [MLS000578867] | 0.83
53 | Cc1ccc(-c2cc(C(=O)Nc3nccs3)c3ccccc3n2)o1 [MLS000579660] | 9.21
54 | Cc1nnc(Sc2cc(NCCCO)c([N+](=O)[O-])c3nonc23)s1 [MLS000674027] | 0.13
55 | Fc1ccc(C2=Nc3cccc4cccc(c34)N2)cc1 [MLS000687139] | 7.63
56 | CCN(C(=O)COC(=O)c1cc(-c2ccc(C)o2)nc2ccccc12)C1CCS(=O)(=O)C1 (stereo unspecified) [MLS001003409] | 3.38
57 | CC1=CC(=O)c2c(O)ccc(O)c2C1=O [MLS001048870] | 2.87
58 | c1ccc(Nc2cccc(Nc3ccccc3)n2)cc1 [N,N'-diphenyl-2,6-pyridinediamine] | 1.17
59 | CC(=O)c1ccc(NC(=O)c2ccc3nc(-c4ccco4)c(-c4ccco4)nc3c2)cc1 [N-(4-acetylphenyl)-2,3-di-2-furyl-6-quinoxalinecarboxamide] | 2.34
60 | Clc1nss/c1=N\c1ccc(Br)cc1 [N-(4-bromophenyl)-4-chloro-5-dithiazolimine] | 9.18
61 | COc1ccc(CCNC(=O)c2ccc3nc(-c4ccco4)c(-c4ccco4)nc3c2)cc1OC [N-[2-(3,4-dimethoxyphenyl)ethyl]-2,3-di-2-furylquinoxaline-6-carboxamide] | 4.3
62 | COc1ccccc1NC1=C(NC(C)=O)C(=O)c2ccccc2C1=O [N-[3-(2-methoxyanilino)-1,4-dioxonaphthalen-2-yl]acetamide] | 1.41
63 | O=C(NC1=C(NC2CCS(=O)(=O)C2)C(=O)c2ccccc2C1=O)c1ccccc1 (stereo unspecified) [N-[3-[(1,1-dioxo-3-thiolanyl)amino]-1,4-dioxo-2-naphthalenyl]benzamide] | 6.59
64 | CC(=O)NC1=C(NC2CCS(=O)(=O)C2)C(=O)c2ccccc2C1=O (stereo unspecified) [N-[3-[(1,1-dioxothiolan-3-yl)amino]-1,4-dioxonaphthalen-2-yl]acetamide] | 1.55
65 | Cc1cccc(C(=O)/N=c2\c(C#N)cc3c(=O)n4cccc(C)c4nc3n2Cc2ccco2)c1 [N-[3-cyano-1-(furan-2-ylmethyl)-10-methyl-5-oxodipyrido[3,4-c:1',2'-f]pyrimidin-2-ylidene]-3-methylbenzamide] | 9.69
66 | COc1cc(CNc2ccc(N3CCCC3)cc2)cc(Cl)c1OC [N-[(3-chloranyl-4,5-dimethoxy-phenyl)methyl]-4-pyrrolidin-1-yl-aniline] | 5.3
